Assays:
Assay in all cases: In vitro MMP inhibition analysis (fluorogenic peptide substrate cleavage), Ki
Format in all cases: biochemical
Human recombinant MMP-1 = target: T1, Human recombinant MMP-1 (Homo sapiens, UniProt P03956)
T1 construct: made in house; host or cells: MMP-1-transfected HT-1080 cells (spent media)
T1 sequence (P03956 100-469): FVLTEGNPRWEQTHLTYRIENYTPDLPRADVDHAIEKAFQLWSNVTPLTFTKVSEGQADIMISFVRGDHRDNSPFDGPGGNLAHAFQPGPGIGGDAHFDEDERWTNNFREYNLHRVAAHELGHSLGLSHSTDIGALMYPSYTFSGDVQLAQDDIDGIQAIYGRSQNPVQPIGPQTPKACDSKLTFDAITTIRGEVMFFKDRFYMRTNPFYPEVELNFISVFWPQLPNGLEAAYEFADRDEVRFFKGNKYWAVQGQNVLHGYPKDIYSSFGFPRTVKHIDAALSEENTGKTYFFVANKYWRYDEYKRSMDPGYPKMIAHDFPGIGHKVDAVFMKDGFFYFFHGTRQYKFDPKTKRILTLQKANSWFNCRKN
Experimental: (§1) Several compounds and salts were analyzed in an in vitro assay to determine their ability to inhibit the MMP cleavage of peptide substrates. Inhibition constant (Ki) were calculated from the assayed compound-MMP interactions.
(§2) Human recombinant MMP-1, MMP-2, MMP-9, MMP-13, and MMP-14 were used in this assay. All enzymes were prepared in Assignee's laboratories following usual laboratory procedures. Protocols for the preparation and use of these enzymes are available in the scientific literature. See, e.g., Enzyme Nomenclature (Academic Press, San Diego, Calif., 1992) (and the citations therein). See also, Frije et al., J. Biol. Chem., 26(24), 16766-73 (1994).
The MMP-1 proenzyme was purified from the spent media of MMP-1-transfected HT-1080 cells provided by Dr. Harold Welgus of Washington University (St. Louis, Mo.). The protein was purified on a zinc chelating column.
(§3) All MMPs were activated using 4-aminophenylmercuric acetate (“APMA”, Sigma Chemical, St. Louis, Mo.) or trypsin. MMP-9 also was activated using human recombinant MMP-3 (purified in Assignee's laboratory following standard cloning and purification techniques).
(§4) The following fluorogenic, methoxycoumarin-containing polypeptide substrate (I) was used in the MMP inhibition assays: MCA-ArgProLeuGlyLeuDpaAlaArgGluArgNH2 (I) “MCA” is 7-methoxycoumarin-4-yl acetyl. Substrate (I) was prepared Assignee's laboratory. In the absence of MMP inhibitory activity, the substrate is cleaved at the Gly-Leu peptide bond. This cleavage separates the highly fluorogenic peptide from the 2,4-dinitrophenyl quencher, thus resulting in increase of fluorescent intensity.
(§5) The stock solutions of the assayed compounds and salts were prepared in […] (DMSO). These stock solutions were diluted in Buffer A (100 mM Tris-HCl, 100 mM NaCl, 10 mM CaCl2, 0.05% polyoxyethylene 23 lauryl ether, pH 7.5) to obtain solutions with different compound concentrations, i.e., assay solutions with different concentrations of the assayed […] compound. The experiment controls contained the same amount of Buffer A/DMSO as the assayed sample, but contained none of the tested compound or salt.
(§6) The assays from which the Ki determinations were made were performed as follows. The assayed compound samples were incubated in separate wells of untreated white polystyrene plates (Nunc Nalgene International, Rochester, N.Y.), and analyzed on a Tecan SpectraFlour Plus plate reader. The excitation wavelength was 330 nm, and the emission wavelength—420 nm. All samples (assayed compounds and controls) were incubated in separate plate wells at room temperature for 1 hr in the presence of 4 μM of MMP substrate (I). In the absence of MMP inhibitory activity, substrate (I) was cleaved at the Gly-Leu bond resulting in an increase of relative fluorescence. Inhibition was observed as a reduced rate of this increase in relative fluorescence. […] This protocol is a modification of method by Knight et al., FEBS Lett., 296(3), 263-266 (1992). Apparent inhibitory constants were determined by non-linear regression of reaction velocity as a function of inhibitor and enzyme concentration using Morrison's equation, as described by Kuzmic, Anal. Biochem. 286, 45-50 (2000). Modifications were made in the non-linear regression method to allow a common control reaction rate and effective enzyme concentration to be shared between all dose-response relationships on a given assay plate. Since the substrate concentration was chosen to be at or below the Km, the apparent Ki's from this analysis were reported as Ki's without correction for the influence of substrate.
(§7) The above protocols were used to determine Ki constants for the compounds in Examples 2-35 above. All Ki values in Table 1 are given in nM units.

Human recombinant MMP-2 = target: T2, Human recombinant MMP-2 (Homo sapiens, UniProt P08253)
T2 construct: made in house; host or cells: MMP-2-transfected p2AHT2 cells
T2 sequence (P08253 110-660): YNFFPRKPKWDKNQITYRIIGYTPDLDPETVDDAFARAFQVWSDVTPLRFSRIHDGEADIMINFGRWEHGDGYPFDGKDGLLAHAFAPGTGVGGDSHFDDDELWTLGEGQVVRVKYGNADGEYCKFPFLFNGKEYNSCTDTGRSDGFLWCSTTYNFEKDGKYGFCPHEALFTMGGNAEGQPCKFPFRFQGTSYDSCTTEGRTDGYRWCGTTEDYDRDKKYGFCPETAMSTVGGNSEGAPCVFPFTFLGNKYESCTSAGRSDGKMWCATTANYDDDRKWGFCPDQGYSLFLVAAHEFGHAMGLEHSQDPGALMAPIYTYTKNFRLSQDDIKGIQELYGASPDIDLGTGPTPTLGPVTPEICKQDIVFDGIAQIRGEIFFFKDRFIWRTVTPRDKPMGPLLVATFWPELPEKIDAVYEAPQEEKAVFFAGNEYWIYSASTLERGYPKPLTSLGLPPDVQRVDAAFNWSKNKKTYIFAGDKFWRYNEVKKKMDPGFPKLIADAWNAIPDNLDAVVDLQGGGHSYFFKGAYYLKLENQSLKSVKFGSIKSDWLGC
Experimental: as §1, §2
The MMP-2 proenzyme was purified by gelatin Sepharose chromatography from MMP-2-transfected p2AHT2 cells provided by Dr. Gregory Goldberg of Washington University (St. Louis, Mo.).
as §3, §4, §5, §6, §7

Human recombinant MMP-9 = target: T3, Human recombinant MMP-9 (Homo sapiens, UniProt P14780)
T3 construct: made in house; host or cells: MMP-9-transfected HT1080 cells (spent media)
T3 sequence (P14780 107-707 limits assumed): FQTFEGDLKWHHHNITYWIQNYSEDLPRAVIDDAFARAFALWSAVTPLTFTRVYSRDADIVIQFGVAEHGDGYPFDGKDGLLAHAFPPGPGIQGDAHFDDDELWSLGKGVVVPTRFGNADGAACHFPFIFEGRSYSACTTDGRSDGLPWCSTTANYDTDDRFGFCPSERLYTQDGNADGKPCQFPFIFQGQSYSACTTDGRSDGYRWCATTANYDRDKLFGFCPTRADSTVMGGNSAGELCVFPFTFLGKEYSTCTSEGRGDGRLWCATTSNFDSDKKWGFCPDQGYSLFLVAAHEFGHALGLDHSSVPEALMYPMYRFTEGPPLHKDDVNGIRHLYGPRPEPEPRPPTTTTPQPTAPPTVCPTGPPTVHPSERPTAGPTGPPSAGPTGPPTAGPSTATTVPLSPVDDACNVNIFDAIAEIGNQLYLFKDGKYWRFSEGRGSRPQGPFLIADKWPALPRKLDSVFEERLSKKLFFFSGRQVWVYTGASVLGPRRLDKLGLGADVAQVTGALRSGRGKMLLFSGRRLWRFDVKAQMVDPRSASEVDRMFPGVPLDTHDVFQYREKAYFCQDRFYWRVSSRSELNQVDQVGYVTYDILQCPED
Experimental: as §1, §2
The MMP-9 proenzyme was purified by gelatin Sepharose chromatography from spent media of MMP-9-transfected HT1080 cells provided by Dr. Howard Welgus of Washington University (St. Louis, Mo.).
as §3, §4, §5, §6, §7

Human recombinant MMP-14 = target: T4, Human recombinant MMP-14 (Homo sapiens, UniProt P50281)
T4 construct: The catalytic domain enzyme was expressed in E. coli inclusion bodies, solubilized in urea; made in house
Experimental: as §1, §2
The MMP-14 full length cDNA was provided by Dr. Gregory Goldberg of Washington University (St. Louis, Mo.). The catalytic domain enzyme was expressed in E. coli inclusion bodies, solubilized in urea, purified on a preparative […] reverse phase HPLC column, and then refolded in the presence of zinc acetate and purified for use.
as §3, §4, §5, §6, §7

Row | Ki (Human recombinant MMP-1; Table 1) [µM] | Ki (Human recombinant MMP-2; Table 1) [nM] | Ki (Human recombinant MMP-9; Table 1) [nM] | Ki (Human recombinant MMP-14; Table 1) [nM] | Ki (Human recombinant MMP-1; Table 2) [µM] | Ki (Human recombinant MMP-2; Table 2) [nM] | Ki (Human recombinant MMP-9; Table 2) [nM] | Ki (Human recombinant MMP-14; Table 2) [nM] | Compound
1 | > 10 | 0.952 | 0.375 | 5970 |  |  |  |  | COCCN1CCC(C(=O)NO)(S(=O)(=O)c2ccc(-c3cnc(CCC(C)(F)F)cn3)cc2)CC1 [Example 65]
2 |  |  |  |  | 3.48 | 0.1 | 0.38 | 599 | O=CN1CCC(C(=O)NO)(S(=O)(=O)c2ccc(-c3ccc(CCCC(F)(F)F)cn3)cc2)CC1 [Example 159]
3 |  |  |  |  | > 10 | 0.218 | 1.04 | 1110 | O=C(NO)C1(S(=O)(=O)c2ccc(-c3cnc(N4CCCC4)cn3)cc2)CCOCC1 [Example 138]
4 |  |  |  |  | > 10 | 9 | 6.23 | > 10000 | CCCCc1ccc(-c2ccc(S(=O)(=O)C3(C(=O)NO)CCN(CC)CC3)cc2)cn1 [Example 139]
5 | 9.6 | 0.16 | 0.22 | 1890 |  |  |  |  | O=C(NO)C1(S(=O)(=O)c2ccc(-c3ccc(CCCC(F)(F)F)cn3)cc2)CCN(C2CC2)CC1 [Example 51]
6 |  |  |  |  | 5.91 | 1.13 | 5.25 | 67.1 | O=C(NO)C1(S(=O)(=O)c2ccc(-c3noc(-c4ccc(F)cc4)n3)cc2)CCOCC1 [Example 134]
7 |  |  |  |  | 3.58 | 5.67 | 4.84 | 315 | CCc1cnc(-c2ccc(S(=O)(=O)C3(C(=O)NO)CCOCC3)cc2)nc1 [Example 122]
8 |  |  |  |  | > 10 | 2.72 | 1.15 | 2870 | O=C(NO)C1(S(=O)(=O)c2ccc(-c3ncc(CCC(F)(F)C(F)(F)F)cn3)cc2)CCOCC1 [Example 137]
9 | > 10 | 0.46 | 1 | 3960 |  |  |  |  | CCN1CCC(C(=O)NO)(S(=O)(=O)c2ccc(-c3ccc(CCCC(F)(F)F)cn3)cc2)CC1 [Example 53]
10 |  |  |  |  | > 10 | 0.89 | 5.3 | 6240 | O=C(NO)C1(S(=O)(=O)c2ccc(-c3cnc(N4CCCCC4)cn3)cc2)CCOCC1 [Example 131]
11 |  |  |  |  | 3.39 | 0.72 | 6.62 | 560 | O=C(NO)C1(S(=O)(=O)c2ccc(-c3ccc(-c4ccc(OC(F)(F)F)cc4)cn3)cc2)CCN(C2CC2)CC1 [Example 145]
12 |  |  |  |  | 2.49 | 0.6 | 0.57 | 152 | COCC#Cc1cnc(-c2ccc(S(=O)(=O)C3(C(=O)NO)CCOCC3)cc2)cn1 [Example 164]
13 |  |  |  |  | 1.63 | 0.304 | 3.4 | 585 | O=C(NO)C1(S(=O)(=O)c2ccc(-c3ccc(OCCCC(F)(F)F)cc3)cc2)CCOCC1 [Example 74]
14 | 2.71 | 0.339 | 0.642 | 800 |  |  |  |  | O=C(NO)C1(S(=O)(=O)c2ccc(-c3ccc(CCCC(F)(F)F)cc3)cc2)CCOCC1 [Example 42]
15 |  |  |  |  | 3.35 | 0.15 | 0.21 | 303 | O=C(NO)C1(S(=O)(=O)c2ccc(-c3ccc(CCC(F)(F)F)cc3)cc2)CCOCC1 [Example 161]
16 | 2.12 | 0.15 | 0.38 | 453 |  |  |  |  | O=C(NO)C1(S(=O)(=O)c2ccc(-c3ccc(CCCC(F)F)cc3)cc2)CCOCC1 [Example 57]
17 | 3.53 | 0.322 | 0.719 | 708 |  |  |  |  | O=C(NO)C1(S(=O)(=O)c2ccc(-c3ccc(CCCC(F)(F)F)cn3)cc2)CCOCC1 [Example 69]
18 |  |  |  |  | > 10 | 153 | 298 | 3170 | O=C(NO)C1(S(=O)(=O)c2ccc(-c3cscc3-c3ccc(F)cc3)cc2)CCOCC1 [Example 132]
19 |  |  |  |  | 2.46 | 0.191 | 0.336 | 311 | CCCCOc1ccc(-c2ccc(S(=O)(=O)C3(C(=O)NO)CCN(C4CC4)CC3)cc2)cc1 [Example 120]
20 |  |  |  |  | 1.31 | 0.26 | 0.18 | 205 | O=C(NO)C1(S(=O)(=O)c2ccc(-c3ccc(-c4ccccc4)cc3)cc2)CCN(C2CC2)CC1 [Example 153]

Reference: patent US20060074243A1, “Hydroxamic acid and amide compounds and their use as protease inhibitors” (Pharmacia Corporation, priority 2002, published 2006)
